Data reported in patent US7241878B1, “Modified cellulose synthase gene from Arabidopsis thaliana confers herbicide resistance to plants” (U.S. Department of Energy, priority 1999, dated 2007).

Legend:
[1] = system: ixr1-1 and ixr1-2 mutant plants; assay: growth analysis under isoxaben spray, ixr1 mutant plants; conditions: 2.0 μM isoxaben
Method: (§1) Seeds from wild-type Col and Ler, ixr1-1 and ixr1-2 homozygous mutants and F1- and F2-seeds were germinated again and treated as described using 2.0 μM isoxaben in the solution.

[2] = system: wild-type Col and Ler plants; assay: growth analysis under isoxaben spray, wild-type plants; conditions: 2.0 μM isoxaben in the spray solution
Method: as §1

[3] = system: ixr1-1-, ixr1-2- and wild-type Arabidopsis plants; assay: isoxaben-resistance pilot screen, spraying of soil-grown plants; assay type: in vivo, Arabidopsis thaliana; conditions: sprayed every 3 days from seedling stage, 1 ml/6 cm^2 soil surface, 0.025% DMSO
Method: Seeds from homozygous isoxaben-resistant mutants ixr1-1 (DH47) and ixr1-2 (DH48) (Heim et al., 1989) were obtained from the Arabidopsis Biological Resource Center, Columbus, Ohio (ABRC stock numbers CS 6201 and CS 6202). Seeds were vernalized for five days in 0.15% water agar at 6° C. prior to planting in a commercial peat-vermiculite-perlite mix (ProMix HP with a 1 cm top-layer of ProMix PGX, Premier Horticulture Inc., Red Hill, Pa., Canada). Plants were grown in the greenhouses of Carnegie Institution of Washington, Department of Plant Biology, Stanford, Calif. between July 1998 and June 1999. Seeds from self-pollinated ixr1-1 and ixr1-2 mutants were collected separately and used for further experiments.
Isoxaben (95%, N-3-[1-ethyl-1-methyl-propyl]-5-isoxazolyl-2, 6-dimethoxybenzamide) was graciously supplied by DowElanco (Indianapolis, Ind.) and was made up as a concentrated dimethylsulfoxide (DMSO) stock solution and used at concentrations ranging from 0.03 to 10.0 μM. The final concentration of DMSO was always 0.025%. Control cultures without isoxaben contained the same amount of DMSO as the isoxaben-treated cultures; no effect of DMSO was noted.

cellulose biosynthesis = conditions: compared with dichlobenil, another cellulose synthesis inhibitor; cited from earlier work
Brassica napus = conditions: in vivo; read-out: I50 for Brassica napus; cited from earlier work
[4] = system: seed germination, mitosis, respiration, photosynthesis, and lipid and RNA synthesis; conditions: cited from earlier work
wild type Arabidopsis = conditions: 12 μM; cited from earlier work
ixr1-1 mutant = conditions: 12 μM; cited from earlier work
[5] = system: cellulose synthesis in algae and plants; conditions: cited from earlier work

For `CCC(C)(CC)c1cc(NC(=O)c2c(OC)cccc2OC)on1` [isoxaben, N-3-[1-ethyl-1-methyl-propyl]-5-isoxazolyl-2,6-dimethoxybenzamide], the “growth of heterozygous mutant F1-plants” value ([1]; heterozygous F1, compared to the homozygous mutants) was “clearly reduced growth”, the “growth of homozygous mutants” value ([1]; homozygous ixr1-1 and ixr1-2 (ixr1-1 grew better than ixr1-2)) was “grew well” and the “growth of wild-type plants” value [2] was “didn't grow at all”. For the same compound, the “concentration in the application solution high enough to discriminate resistant and susceptible plants” value [3] was 1.0 to 3.0 µM, the “acts at lower concentrations than dichlobenil (factor)” value (cellulose biosynthesis) was < 40 × and the IC50 (Brassica napus) was 20 nM. The “effect on other cellular processes” value [4] was “unaffected”.
For `CC(C)(C)NC(=O)OC1SCN(c2cccc(C(F)(F)F)c2)C1=O` (stereo not shown) [TZ, 5-tert-butyl-carbamoyloxy-3-(3-trifluromethyl) phenyl-4-thiazolidnone], the “effect on wild type Arabidopsis” value (wild type Arabidopsis) is listed as “kills” and the “reduction of growth of the ixr1-1 mutant” value (ixr1-1 mutant) is listed as 50%.
In the case of `N#Cc1c(Cl)cccc1Cl` [DCB, 2,6-dichlorobenzonitrile], the “inhibition of cellulose synthesis” value [5] is given as “effective and specific inhibitor”.
